Test results published in ChEMBL document CHEMBL1151657, “Flavonoids from the Wood of Salix caprea as Inhibitors of Wood-Destroying Fungi” (1985).

Key:
Assay type in all cases: functional
Trichoderma viride [1] = test: Antimicrobial activity against Trichoderma viride after 60 mins by agar diffusion method
Sporotrichum [2] = test: Antimicrobial activity against Sporotrichum pulverulentum at 0.01% concentration after 60 mins by agar diffusion method
Trichoderma viride [3] = test: Antimicrobial activity against Trichoderma viride at 1% concentration after 60 mins by agar diffusion method
Sporotrichum [4] = test: Antimicrobial activity against Sporotrichum pulverulentum at 1% concentration after 60 mins by agar diffusion method
Coniophora puteana [5] = test: Antimicrobial activity against Coniophora puteana at 0.01% concentration after 60 mins by agar diffusion method
Coniophora puteana [6] = test: Antimicrobial activity against Coniophora puteana at 1% concentration after 60 mins by agar diffusion method
Coniophora puteana [7] = test: Antimicrobial activity against Coniophora puteana after 60 mins by agar diffusion method
Staphylococcus aureus = test: Antimicrobial activity against Staphylococcus aureus after 30 mins by agar diffusion method
[8] = tested on: Trichophyton mentagrophytes; test: Antimicrobial activity against Trichophyton mentagrophytes after 60 mins by agar diffusion method
Sporotrichum [9] = test: Antimicrobial activity against Sporotrichum pulverulentum after 60 mins by agar diffusion method
Enterococcus faecalis = test: Antimicrobial activity against Streptococcus faecalis after 30 mins by agar diffusion method
Escherichia coli = test: Antimicrobial activity against Escherichia coli after 30 mins by agar diffusion method

Compound	inhibition zone (IZ) (Trichoderma viride [1])	inhibition zone (IZ) (Coniophora puteana [7])	inhibition zone (IZ) (Sporotrichum [9])	also measured
O=C1c2c(O)cc(O)cc2O[C@H](c2ccc(O)c(O)c2)[C@H]1O [(+)-TAXIFOLIN]	10 mm	–	–	–
O=C1C2CC=CCC2C(=O)N1SC(Cl)(Cl)Cl (stereo unspecified) [CAPTAN]	–	–	–	inhibition zone (IZ) (Sporotrichum [2]): 15 mm; inhibition zone (IZ) (Trichoderma viride [3]): 15 mm; inhibition zone (IZ) (Sporotrichum [4]): >25 mm; inhibition zone (IZ) (Coniophora puteana [5]): 10 mm; inhibition zone (IZ) (Coniophora puteana [6]): >25 mm
Oc1cc(O)c2c(c1)O[C@H](c1ccc(O)c(O)c1)[C@@H](O)C2 [CIANIDANOL]	10 mm	–	–	–
COc1ccc(C2Oc3cc(O)cc(O)c3C(=O)C2O)cc1 (stereo unspecified) [DIHYDROKAEMPFERIDE]	–	<10 mm	–	inhibition zone (IZ) (Staphylococcus aureus): 8 mm
O=C1c2c(O)cc(O)cc2O[C@H](c2ccc(O)cc2)[C@H]1O [DIHYDROKAEMPFEROL]	–	10 mm	–	–
O=C1C[C@@H](c2ccc(O)cc2)Oc2cc(O)cc(O)c21 [NARINGENIN]	10 mm	10 mm	10 mm	inhibition zone (IZ) [8]: 11 mm; inhibition zone (IZ) (Enterococcus faecalis): 10 mm; inhibition zone (IZ) (Staphylococcus aureus): 17.2 mm; inhibition zone (IZ) (Escherichia coli): 8 mm
O=[N+]([O-])c1c(Cl)c(Cl)c(Cl)c(Cl)c1Cl [PENTACHLORONITROBENZENE]	10 mm	10 mm	<10 mm	–
O=C1C[C@@H](c2ccc(O)cc2)Oc2cc(O[C@@H]3O[C@H](CO)[C@@H](O)[C@H](O)[C@H]3O)cc(O)c21 [PRUNIN]	–	–	15 mm	–
